Experimental findings from ChEMBL document CHEMBL1152054, “Synthesis and evaluation of a -lactam-containing dipeptide analog as a protease inhibitor” (Bioorg Med Chem Lett, 1996) are described below.

A short description of assay [1]: Compound was tested for inhibition of elastase serine protease to produce one-half maximal enzyme activity.
Assay [2] is described as follows: Compound was tested for inhibition of proteinase K serine protease to produce one-half maximal enzyme activity.
In a further assay the target is Chymotrypsinogen B (Homo sapiens, UniProt P17538). The assay is described as follows: Compound was tested for inhibition of alpha-chymotrypsin serine protease to produce one-half maximal enzyme activity.
Chain of Chymotrypsinogen B (P17538 34-164 limits assumed, other chains not shown): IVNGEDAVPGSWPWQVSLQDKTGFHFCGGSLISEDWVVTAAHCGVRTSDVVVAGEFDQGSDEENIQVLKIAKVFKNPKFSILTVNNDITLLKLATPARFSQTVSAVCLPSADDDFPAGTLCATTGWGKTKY
Chain of Chymotrypsinogen B (P17538 167-263 limits assumed, other chains not shown): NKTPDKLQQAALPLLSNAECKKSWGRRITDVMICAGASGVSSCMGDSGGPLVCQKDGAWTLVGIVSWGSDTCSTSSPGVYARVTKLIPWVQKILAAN
The nature of assay [3]: Compound was tested for inhibition of carboxypeptidase Y serine protease to produce one-half maximal enzyme activity.

In the case of `COC(=O)CN1CC(Cc2ccccc2)(NC(=O)c2ccccc2)C1=O` (centres undefined), the Inhibition constant in assay [1] is more than 1.2 mM; in assay [2], more than 1.2 mM; on Chymotrypsinogen B, 0.3 mM; in assay [3], 0.3 mM.
